Results from US20040053826A1, “Uses of polypeptides” (priority 2000, published 2004).
Bridge positions count the residues as written; N and C are the ends. Ends that are not written are not given here.

Legend:
C57BL/6N mice [1] = assay: Elevated plus maze test; assay type: in vivo, mouse; settings: for (Open arm entries)/(open arm entries + closed arm entries): 30 minutes after administration, tested over 5 minutes
From the text: An acrylic maze having 4 arms (25 cm long, 8 cm wide) placed in the shape of a cross (elevated plus maze) was positioned in a sound-proof chamber under low illumination (0.5 lux). Two opposite arms of the elevated plus maze were enclosed by walls (closed arms) and the other two arms were wall-less (open arms). The maze was elevated 25 cm above the floor (FIG. 5).
(§1) After C57BL/6N mice were acclimatized in the laboratory, PBS containing the polypeptide (SEQ ID NO: 9; 1 nmol or 3 nmol) or PBS alone was administered in a volume of 5 μl into the lateral ventricle of each mouse using a double-needle (Matsumoto Seisakusho) under ether anesthesia. Thirty minutes after the administration, each mouse was placed on the elevated plus maze and tested over 5 minutes for the number of entries into each arm and the time spent on open arms.

C57BL/6N mice [2] = assay: Hole board test; assay type: in vivo, mouse; settings: 0.1, 0.3 or 3 nmol into the lateral ventricle, 30 minutes after administration, over 5 minutes
Procedure: A polyvinyl chloride box having 4 holes (diameter: 3.8 cm) at its bottom was used as a hole board. Locomotion on the hole board was measured with a Supermex sensor (Muromachi Kikai Co., Ltd.). To measure the number of head dippings, MRS-110RX infrared-scanning sensors (Muromachi Kikai Co., Ltd.) were provided immediately below the respective holes.
as §1, with “9; 0.1 nmol, 0.3” for “9; 1”, “placed in” for “placed on”, “the center of the hole board” for “the elevated plus maze”, “for locomotion and” for “for”, “of head dippings.” for “of entries into each arm and the time spent on open arms.”

Wistar male rats [3] = assay: Locomotion measurement (spontaneous locomotion and number of rearings) after administration into the lateral ventricle; assay type: in vivo, rat
From the text: (§2) Wistar male rats (9 weeks old) were anesthetized with pentobarbital and a guide cannula (AG-8, Eicom) was inserted into the lateral ventricle of each rat (AP: +8.1 mm, L: 1.8 mm, H: +7.1 mm). The rats were then allowed to recover for at least one week before the experiment. During the recovery period, handling was made every day to reduce stresses resulting from intraventricular administration.
On the day before the experiment, the rats were transferred to a locomotion testing system for acclimation purposes. Under unanesthetized and unrestrained conditions, a microinjection cannula was attached to the guide cannula through which each rat was administered with the polypeptide (SEQ ID NO: 9; 10 nmol) dissolved in phosphate buffered saline (PBS) or PBS alone at a rate of 5 μl/min for 2 minutes. Immediately after the administration, the rats were returned to the locomotion testing system (Supermex, Muromachi Kikai Co., Ltd.) and tested for their spontaneous locomotion and the number of rearings (FIG. 1).
as §2, with “8.1” for “+8.1”, “7.1” for “+7.1”
On the day before the experiment, the rats were transferred to a locomotion testing system for acclimation purposes. Under unanesthetized and unrestrained conditions, a microinjection cannula was attached to the guide cannula through which each rat was administered with the polypeptide (SEQ ID NO: 9; 1 nmol) dissolved in PBS or PBS alone in a volume of 10 μl (5 μl/min for 2 minutes). Immediately after the administration, the rats were returned to the locomotion testing system (Supermex, Muromachi Kikai Co., Ltd.) and tested for their spontaneous locomotion and the number of rearings (FIG. 2).
(§3) Each of Wistar male rats (8 weeks old) was anesthetized with pentobarbital and fixed on a stereotaxic apparatus. A guide cannula (AG-8, Eicom) was inserted into the lateral ventricle of each rat (AP: +8.1 mm, L: 1.8 mm, H: +7.1 mm). The rats were then allowed to recover for at least one week before the experiment. During the recovery period, handling was made every day to reduce stresses resulting from intraventricular administration.
The cannulated rats were transferred to a locomotion testing system (Supermex, Muromachi Kikai Co., Ltd.) and acclimatized overnight. The rats were transferred from the locomotion testing system and intraventricularly administered with the polypeptide (SEQ ID NO: 9; 1 nmol or 10 nmol) dissolved in phosphate buffered saline (PBS) or PBS alone at a flow rate of 5 μl/min for 4 minutes. Immediately after the administration, the rats were returned to the locomotion testing system and tested for their spontaneous locomotion and the number of rearings.

Wistar male rats [4] = assay: Locomotion measurement: effects of diazepam on locomotion induced by intraventricular polypeptide (SEQ ID NO: 9) or PACAP38; assay type: in vivo, rat
From the text: as §3
The cannulated rats were transferred to a locomotion testing system (Supermex, Muromachi Kikai Co., Ltd.) and acclimatized overnight. The rats were transferred from the locomotion testing system and subcutaneously administered with diazepam (1 mg/kg). An hour later, the rats were intraventricularly administered with the polypeptide (SEQ ID NO: 9; 10 nmol) or PACAP38 (3 nmol) dissolved in phosphate buffered saline (PBS) at a flow rate of 2.5 μl/min for 4 minutes. Immediately after the administration, the rats were returned to the locomotion testing system and tested for their spontaneous locomotion (FIG. 4).

[5] = Example 1, 10 nmol into the lateral ventricle
[6] = Example 2, 1 nmol into the lateral ventricle
[7] = Example 3, 10 nmol intraventricularly

Molecule: polypeptide (SEQ ID NO: 9): bovine SENR ligand peptide; the 6th and 11th cysteine residues form an intramolecular disulfide bond (GPSSECFWKYCV; disulfide 6-11)
- (Open arm entries)/(open arm entries + closed arm entries) (C57BL/6N mice [1]; 1 nmol into the lateral ventricle, n=20): 0.131 ± 0.009
- probability to select open arms (C57BL/6N mice [1]; 1 nmol or 3 nmol into the lateral ventricle): reduced
- (Open arm entries)/(open arm entries + closed arm entries) (C57BL/6N mice [1]; 3 nmol into the lateral ventricle, n=20, *p < 0.05, Dunnett): 0.065 ± 0.018*
- locomotion on the hole board (C57BL/6N mice [2]): no change
- number of head dippings (C57BL/6N mice [2]): significant decrease
- locomotion after the initial decrease (Wistar male rats [3]; [5]): increase in their locomotion
- number of rearings (Wistar male rats [3]; [5]): same effects as found in spontaneous locomotion
- spontaneous locomotion immediately after the administration, as compared with the control rats (Wistar male rats [3]; [5]): tended to decrease
- inhibition against a transient increase in locomotion as observed in 10 nmol administration (Wistar male rats [3]; [6]): did not show such an inhibition
- locomotion from immediately after the administration (Wistar male rats [3]; [6]): increase in their locomotion
- locomotion and the number of rearings from immediately after the administration (Wistar male rats [3]; Example 3, 1 nmol intraventricularly): increases
- duration of the decreases in locomotion and number of rearings (Wistar male rats [3]; [7]): about 10 minutes
- duration of the increase in locomotion (Wistar male rats [3]; [7]): about 1 hour
- locomotion and the number of rearings immediately after the administration (Wistar male rats [3]; [7]): decreases
- locomotion following the transient decrease (Wistar male rats [3]; [7]): increase in locomotion
- number of rearings (Wistar male rats [3]; Example 3, 10 nmol intraventricularly, less significant tendency to increase): 51.0±13.4 times/90 min

Molecule: PACAP38: PACAP38 known to have the ability to increase locomotion (HSDGIFTDSYSRYRKQMAVKKYLAAVLGKRYKQRVKNK; ends and bridges not checked; UniProt P18509 132-169, looked up)
- spontaneous locomotion (Wistar male rats [4]; PACAP38 3 nmol intraventricularly): increase in locomotion

Molecule: CN1C(=O)CN=C(c2ccccc2)c2cc(Cl)ccc21 [Diazepam, diazepam]
- effect on the increase in locomotion induced by PACAP38 (Wistar male rats [4]; diazepam 1 mg/kg subcutaneously 1 hour before PACAP38 3 nmol intraventricularly): dose not affect
- effect on the increase in locomotion induced by the polypeptide (SEQ ID NO: 9) (Wistar male rats [4]; diazepam 1 mg/kg subcutaneously 1 hour before polypeptide (SEQ ID NO: 9) 10 nmol intraventricularly): significantly inhibits
